In assay [1] the target is T1, alpha-glucosidase (Saccharomyces cerevisiae) (Saccharomyces cerevisiae, UniProt P53341).
T1 construct: purchased Sigma-Aldrich, Cape Town, South Africa
Put plainly: biochemical. From the text: (§1) EGCG (epigallocatechin gallate), Trolox (6-hydroxyl-2,5,7,8-tetramethylchroman-2-carboxylic acid), and other reagents such as TPTZ (2,4,6-tri[2-pyridyl]-s-triazine, iron (III) chloride hexahydrate, ABTS (2,2-azino-bis (3-ethylbenzo thiazoline-6-sulfonic acid) diammonium salt), AAPH (2,2-Azobis (2-methylpropionamidine) dihydrochloride), fluorescein sodium salt, potassium peroxodisulfate, copper sulfate, hydrogen peroxide, perchloric acid, alpha-glucosidase (Saccharomyces cerevisiae), alpha-amylase ([…]), and 3,5,di-nitro salicylic acid (DNS), sodium carbonate (Na2CO3), 4-nitro-phenyl-α-D-glucopyranoside (pNPG), di-sodium hydrogen phosphate, and sodium dihydrogen phosphate purchased from Sigma-Aldrich, Cape Town, South Africa. The organic solvents used in this study were supplied by Merck, Cape Town, South Africa. The NMR spectra were carried out on an Avance 400 MHz spectrometer (Bruker, Rheinstetten, Germany) using deuterated chloroform. Preparative HPLC was utilized for the purification of compounds using HPLC-grade methanol and distilled water.
Briefly, 20 μL of 5 mM substrate ([…]) was added to each well and left to incubate for 20 min at 37 °C. The reacting mixture was stopped after incubation by adding 0.1 M sodium carbonate (50 μL). The release of p-nitrophenol of the reacting mixture relating to the activity of the enzyme was read at a wavelength of 405 nm using a multiplate reader (Multiskan, Thermo Scientific).
All the measurements were repeated three times, and the IC50 was calculated using GraphPad Prism 5 version 5.01 (Graph pad software, Inc., La Jolla, CA, USA) statistical software. The data presented are means ± SD obtained from 96-well-plate readers for all in vitro experiments.

A short description of assay [2]: Oxygen radical absorbance capacity (ORAC) assay. The settings on record: Trolox equivalent; mean ± SD of triplicate. An excerpt: The method of Cao and Prior (1998) was employed to measure oxygen radical absorbance capacity (ORAC) and as reported in our previous study. The method measures the scavenging potential of compounds against the decomposition of peroxyl radical of 2,2-azobis (2-amino-propane) dihydrochloride (AAPH) as peroxyradical (ORAC ROO^•). The antioxidant capacity of a compound is a measure of the fading fluorescence of a probe (fluorescein) using the area under the curve (AUC) plot in relation to a control blank. The florescence of the probe was programmed to be measured at every two minutes for 2 h after the addition of AAPH at the excitation wavelength and emission set at 485 and 530 nm, respectively. The ORAC results were estimated following a regression equation (Y = a + bX + Cx^2) between Trolox concentration (Y in μM) and the net area under the fluorescence decay curve (X). ORAC values were expressed as μM Trolox equivalent (TE)/mg of test sample.

Assay [3] can be described thus: Trolox equivalent absorbance capacity (TEAC) assay. The following applies: mean ± SD of triplicate. The method, then: The TEAC assay was evaluated following the method of Pellegrini et al. (1999). The working solution containing 88 µL of K2S2O8 (140 mM) and 5 mL ABTS (7 mM) was kept for at least 16 h in the dark at 25 °C. The working solution was then diluted after 16 h with ethanol until the absorbance read approximately 2.0 (±0.1). The extract, purified compounds, or standard (25 µL) was mixed with 300 µL working solution and allowed to incubate in the dark for 30 min at room temperature. Trolox was used as the standard using a concentration range between 0 and 500 µM. The absorbance of the reaction was read at a wavelength of 734 nm using a multiplate reader.

The nature of assay [4]: Ferric-ion reducing antioxidant power (FRAP) assay. The settings on record: ascorbic acid equivalent; mean ± SD of triplicate. On the procedure: The FRAP assay was assessed according to the method of Benzie and Strain (1996). FRAP reagent containing the mixture of acetate buffer (300 mM, pH 3.6), tripyridyl triazine (TPTZ) (10 mM in 40 mM HCl), and 20 mM FeCl3.6H2O in ratio 10:1:1 (v/v/v) was used. Extract, compounds, or standard (10 µL) was added to 300 µL FRAP reagent, incubated for 30 min in the dark at room temperature. The reacting mixture was read at a wavelength of 593 nm in a multiplate reader. Ascorbic acid was used as standard at varying concentrations of 0 to 1000 µM. The result was presented as a mean of independent triplicate experiments and expressed as µM ascorbic acid equivalents per milligram dry weight (µM AAE/g) of the test samples.

Assay [5] has as its target T2, alpha-amylase (procaine pancreas) (Sus scrofa, UniProt P00690).
T2 construct: purchased Sigma-Aldrich, Cape Town, South Africa
T2 sequence (P00690 16-511): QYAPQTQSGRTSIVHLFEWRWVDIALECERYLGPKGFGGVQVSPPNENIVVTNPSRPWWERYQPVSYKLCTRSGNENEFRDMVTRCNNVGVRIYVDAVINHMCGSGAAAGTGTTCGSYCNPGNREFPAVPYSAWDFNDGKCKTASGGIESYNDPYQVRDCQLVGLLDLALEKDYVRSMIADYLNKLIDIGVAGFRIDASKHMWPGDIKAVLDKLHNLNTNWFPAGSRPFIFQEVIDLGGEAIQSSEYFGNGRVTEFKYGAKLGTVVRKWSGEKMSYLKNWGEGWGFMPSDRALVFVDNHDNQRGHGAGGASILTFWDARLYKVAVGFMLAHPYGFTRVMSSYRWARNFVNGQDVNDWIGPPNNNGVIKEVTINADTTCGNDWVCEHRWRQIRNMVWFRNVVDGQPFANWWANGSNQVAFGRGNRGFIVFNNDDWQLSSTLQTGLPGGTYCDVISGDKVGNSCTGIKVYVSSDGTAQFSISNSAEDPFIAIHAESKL
The assay is described as follows: Alpha-amylase inhibitory activity (starch/DNS). The settings on record: mean ± SD, n = 3; samples 100–31.2 μg/mL; NA: not active within the evaluated concentrations. The assay is classed as biochemical.
Text: as §1
The mixture was allowed to incubate for 20 min at 37 °C before the addition of 1% soluble starch (10 μL) and further incubated for another 30 min. A color reagent DNS (100 μL) was added and boiled at 95 °C for 15 min. The change in color was read at a wavelength of […] using a multiplate reader.
The data presented are means ± SD obtained from 96-well-plate readers for all in vitro experiments.

For assay [6], the target named is rat liver diacylglycerol acyltransferase 1 (DGAT1). More on the design: method as in PMID 28034282. The settings on record: read-out: IC50 against rat liver DGAT1; cited from earlier work.
Assay [7] has as its system intracellular de novo triglyceride synthesis. More on the design: method as in PMID 28034282. The following applies: without affecting cell viability; cited from earlier work.

Each structure is given as a SMILES string. pIC50: −log10 of the molar value.

The values that follow come from article PMC7699461, “Alpha-Glucosidase and Alpha-Amylase Inhibitory Activities, Molecular Docking, and Antioxidant Capacities of Salvia aurita Constituents” (Antioxidants, 2020).

T1 sequence (P53341 whole entry): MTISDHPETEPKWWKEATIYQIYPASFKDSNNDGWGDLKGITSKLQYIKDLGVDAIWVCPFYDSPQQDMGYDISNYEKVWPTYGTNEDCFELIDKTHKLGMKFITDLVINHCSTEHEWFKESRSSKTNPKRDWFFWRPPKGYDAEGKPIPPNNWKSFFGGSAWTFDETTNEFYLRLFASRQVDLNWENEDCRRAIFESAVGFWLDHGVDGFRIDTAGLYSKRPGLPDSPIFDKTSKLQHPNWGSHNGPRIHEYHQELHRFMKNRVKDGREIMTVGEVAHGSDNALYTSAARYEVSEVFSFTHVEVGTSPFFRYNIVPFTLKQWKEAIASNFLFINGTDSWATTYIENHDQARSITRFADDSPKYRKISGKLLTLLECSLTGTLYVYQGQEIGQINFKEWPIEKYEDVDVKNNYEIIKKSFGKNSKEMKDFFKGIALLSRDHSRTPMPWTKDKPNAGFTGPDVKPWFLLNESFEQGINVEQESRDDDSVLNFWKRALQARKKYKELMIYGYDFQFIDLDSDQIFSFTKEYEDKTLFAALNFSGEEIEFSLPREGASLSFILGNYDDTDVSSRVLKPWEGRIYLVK

In general, pIC50 refers to −log10 of the IC50, conventionally taken in molar units. As to `COc1ccc(-c2cc(=O)c3c(O)cc(OC)cc3o2)cc1` [4,7-dimethylapigenin ether, 4,7-dimethylapigenin], the pIC50 in assay [1] is 4.02. Besides, in assay [2], the ORAC is on record as 6.47 ± 0.01 mM TE/g. Also, in assay [3], the TEAC was 3.19 ± 0.003 mM TE/g. Besides, in assay [4], the FRAP came to 0.61 ± 0.006 mM AAE/g.

On to `COc1c(C(C)C)cc2c(c1O)[C@@]1(C(=O)O)CCCC(C)(C)[C@@H]1CC2` [12-methoxycarnosic acid], for which the figures for the pIC50 in assay [1] and in assay [5] were 3.97 and 4.33, respectively. Also, in assay [2], the ORAC was 20.25 ± 0.01 mM TE/g. For the same molecule, the TEAC in assay [3] is 0.34 ± 0.003 mM TE/g. Moreover, the FRAP in assay [4] is given as 0.51 ± 0.003 mM AAE/g.

For the molecule `CC(C)c1cc2c(c(O)c1O)[C@@]13CCCC(C)(C)[C@@H]1C[C@@H]2OC3=O` [Carnosol, carnosol], the pIC50 is 3.80 in assay [1], 4.22 in assay [5] and 4.20 in assay [6]. Further, the ORAC in assay [2] is on record as 23.96 ± 0.01 mM TE/g. Further, the TEAC in assay [3] was 0.33 ± 0.002 mM TE/g. Further, the FRAP in assay [4] is on record as 3.92 ± 0.002 mM AAE/g. Further, the “deactivation of intracellular de novo triglyceride synthesis” value in assay [7] was 67.5–90.6%.

On to `O=C(O[C@@H]1Cc2c(O)cc(O)cc2O[C@@H]1c1cc(O)c(O)c(O)c1)c1cc(O)c(O)c(O)c1` [EGCG, epigallocatechin gallate, reference compound], for which, in assay [2], the ORAC is listed as 3.98 ± 0.00 mM TE/g. Moreover, in assay [3], the TEAC is given as 4.15 ± 0.02 mM TE/g. Further, the FRAP in assay [4] turned out to be 7.53 ± 0.005 mM AAE/g.

As to `CC(C)c1cc2c(c(O)c1O)[C@@]13CCCC(C)(C)[C@@H]1[C@H](OC3=O)[C@H]2O` [Rosmanol, rosmanol], the figures for the pIC50 in assay [1] and in assay [5] were 4.32 and 3.93, respectively. For the same molecule, the ORAC in assay [2] was determined as 25.79 ± 0.01 mM TE/g. In addition, in assay [3], the TEAC turned out to be 2.06 ± 0.003 mM TE/g. In assay [4], the FRAP was found to be 1.52 ± 0.002 mM AAE/g.
